In BindingDB's records for doi:10.1021/ml100283h (2011):

Tests used:
[1] = molecular target: T1, Cytochrome P450 11B2, mitochondrial (Homo sapiens, UniProt P19099); experiment: Inhibition of human CYP11B2 expressed in hamster V79 MZ cells using [3H] 11 deoxycorticosterone as substrate by HPLC radioflow detector
T1 sequence (P19099 whole entry): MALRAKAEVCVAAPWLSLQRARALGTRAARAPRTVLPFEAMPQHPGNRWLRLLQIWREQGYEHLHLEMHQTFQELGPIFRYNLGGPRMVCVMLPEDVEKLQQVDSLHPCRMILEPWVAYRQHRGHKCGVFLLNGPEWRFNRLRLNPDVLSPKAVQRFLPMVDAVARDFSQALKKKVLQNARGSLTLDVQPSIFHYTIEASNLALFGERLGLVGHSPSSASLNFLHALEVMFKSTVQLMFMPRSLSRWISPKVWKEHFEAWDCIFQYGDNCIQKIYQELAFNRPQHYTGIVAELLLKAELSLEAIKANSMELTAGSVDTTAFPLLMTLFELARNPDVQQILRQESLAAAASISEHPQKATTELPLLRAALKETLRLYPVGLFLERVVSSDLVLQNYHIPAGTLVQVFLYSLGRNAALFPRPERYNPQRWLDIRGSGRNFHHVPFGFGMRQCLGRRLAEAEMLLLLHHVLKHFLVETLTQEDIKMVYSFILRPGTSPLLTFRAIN

[2] = molecular target: T2, Cytochrome P450 11B1, mitochondrial (Homo sapiens, UniProt P15538); experiment: Inhibition of human CYP11B1 expressed in hamster V79 MZ cells using [3H] 11 deoxycorticosterone as substrate by HPLC radioflow detector
T2 sequence (P15538 whole entry): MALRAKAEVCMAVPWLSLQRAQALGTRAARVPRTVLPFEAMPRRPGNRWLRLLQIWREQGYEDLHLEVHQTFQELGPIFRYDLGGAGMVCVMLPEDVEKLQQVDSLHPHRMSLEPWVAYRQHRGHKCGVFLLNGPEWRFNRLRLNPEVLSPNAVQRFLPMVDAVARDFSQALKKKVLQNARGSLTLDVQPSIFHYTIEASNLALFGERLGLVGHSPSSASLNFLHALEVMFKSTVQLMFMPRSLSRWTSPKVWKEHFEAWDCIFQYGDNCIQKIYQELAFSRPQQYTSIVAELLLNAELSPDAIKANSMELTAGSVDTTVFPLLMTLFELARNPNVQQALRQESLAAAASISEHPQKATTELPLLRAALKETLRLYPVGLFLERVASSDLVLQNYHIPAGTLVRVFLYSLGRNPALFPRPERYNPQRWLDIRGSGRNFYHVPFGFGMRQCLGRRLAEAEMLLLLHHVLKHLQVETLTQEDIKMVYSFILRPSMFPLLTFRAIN

Question: For `c1ccc(-c2ccc(Cn3ccnc3)cn2)cc1` [5-((1H-imidazol-1-yl)methyl)-2-phenylpyridine], which IC50 [1] is on record?
Answer: 2.77 µM

Question: And the IC50 [2]?
Answer: 0.152 µM
